Data published in patent publication US9714231B2, “Pyrrolidine GPR40 modulators” (BRISTOL-MYERS SQUIBB COMPANY, priority 2012, dated 2017).
Where a name gives a salt, the structure may show the parent alone.

target: human GPR40 (Homo sapiens, UniProt O14842); experiment: FDSS-based intracellular calcium assay (Human GRP40 in vitro assay); type: cell-based; parameters: 3xFLAG; expressed in transfected cells; settings: cells expressing GPR40, intracellular Ca2+ response, FDSS reader; read-out: hGPR40 EC50
Experimental: To conduct the fluorescent imaging plate reader (FLIPR)-based calcium flux assay to measure intracellular Ca^2+ response, cells expressing GPR40 are plated on 384 well plates (BD BIOCOAT® #356697) at a density of 20,000 cells/20 μL medium per well in phenol red and serum-free DMEM (GIBCO® #21063-029) and incubated overnight. Using BD kit #s 80500-310 or -301, the cells are incubated with 20 μL per well of Hank's buffered salt solution with 1.7 mM probenecid and Fluo-3 at 37° C. for 30 min. Compounds are dissolved in DMSO and diluted to desired concentrations with assay buffer and added to the cells as 3× solution (20 μL per well). Run fluorescence/luminescence reader FDSS (Hamamatsu) to read intracellular Ca^2+ response.

Chain of human GPR40 (O14842 whole entry): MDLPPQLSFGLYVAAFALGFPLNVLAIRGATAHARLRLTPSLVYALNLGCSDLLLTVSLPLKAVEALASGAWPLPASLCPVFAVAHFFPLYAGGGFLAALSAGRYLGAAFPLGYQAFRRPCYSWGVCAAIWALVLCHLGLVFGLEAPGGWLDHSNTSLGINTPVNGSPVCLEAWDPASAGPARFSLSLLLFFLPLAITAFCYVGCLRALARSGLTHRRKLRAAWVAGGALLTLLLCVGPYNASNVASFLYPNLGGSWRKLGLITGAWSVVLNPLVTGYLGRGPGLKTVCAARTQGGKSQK

Row | EC50 | SMILES
1 | 630 nM | COc1ccc(F)c(N2CC[C@@H](COc3ccc(N4C[C@H](C(F)(F)F)C[C@@H]4CC(=O)O)cc3)C2)c1 [Example 11, 2-((2R,4R)-1-(4-(((R)-1-(2-Fluoro-5-methoxyphenyl)pyrrolidin-3-yl)methoxy)phenyl)-4-(trifluoromethyl)pyrrolidin-2-yl)acetic acid, HCl]
2 | 1100 nM | CCc1cc(F)c(N2CCC(Oc3ccc(N4C[C@H](OC)C[C@@H]4CC(=O)O)cc3)CC2)cc1OC [Example 29, 2-((2R,4R)-1-(4-((1-(4-Ethyl-2-fluoro-5-methoxyphenyl)piperidin-4-yl)oxy)phenyl)-4-methoxypyrrolidin-2-yl)acetic acid, TFA]
3 | 77 nM | COc1ccc(F)c(N2CCC(Oc3ccc(N4C[C@H](F)C[C@@H]4CC(=O)O)cc3)C(C)C2)c1 (stereo partly drawn) [Example 25, 2-((2S,4R)-4-Fluoro-1-(4-((1-(2-fluoro-5-methoxyphenyl)-3-methylpiperidin-4-yl)oxy)phenyl)pyrrolidin-2-yl)acetic acid, TFA]
4 | 240 nM | CCOc1ccc(F)c(N2[C@H](C)C[C@H](Oc3ccc(N4C[C@H](C(F)(F)F)C[C@@H]4CC(=O)O)cc3)C[C@@H]2C)c1 [Example 42, 2-((2R,4R)-1-(4-(((2R,4R,6S)-1-(5-Ethoxy-2-fluorophenyl)-2,6-dimethylpiperidin-4-yl)oxy)phenyl)-4-(trifluoromethyl)pyrrolidin-2-yl)acetic acid, HCl]
5 | 370 nM | COc1cc(N2CCC(Oc3ccc(N4C[C@H](OC)C[C@@H]4CC(=O)O)cc3)C(C)C2)c(F)cn1 (single isomer, unassigned) [Example 83, Isomer 2]
6 | 320 nM | CCOc1ccc(F)c(N2CCC(Oc3ccc(N4C[C@H](OC)[C@@H](C(C)C)[C@@H]4CC(=O)O)cc3)CC2)c1 [Example 89, 2-((2S,3S,4R)-1-(4-((1-(5-Ethoxy-2-fluorophenyl)piperidin-4-yl)oxy)phenyl)-3-isopropyl-4-methoxypyrrolidin-2-yl)acetic acid, TFA]
7 | 120 nM | CCCCCO[C@@H]1C[C@H](CC(=O)O)N(c2ccc(OC3CCN(c4cc(OCC)ccc4F)CC3)cc2)C1 [Example 103, 2-((2R,4R)-1-(4-((1-(5-Ethoxy-2-fluorophenyl)piperidin-4-yl)oxy)phenyl)-4-(pentyloxy)pyrrolidin-2-yl)acetic acid, TFA]
8 | 1100 nM | CCc1c(OC)ccc(F)c1N1CCC(Oc2ccc(N3C[C@H](OC)C[C@@H]3CC(=O)O)cc2)CC1 [Example 31, 2-((2R,4R)-1-(4-((1-(2-Ethyl-6-fluoro-3-methoxyphenyl)piperidin-4-yl)oxy)phenyl)-4-methoxypyrrolidin-2-yl)acetic acid, TFA]
9 | 840 nM | COc1cc(N2CCC(Oc3ccc(N4C[C@H](OC)C[C@@H]4CC(=O)O)cc3)CC2)c(F)cc1CC(C)C [Example 30, 2-((2R,4R)-1-(4-((1-(2-Fluoro-4-isobutyl-5-methoxyphenyl)piperidin-4-yl)oxy)phenyl)-4-methoxypyrrolidin-2-yl)acetic acid, TFA]
10 | 3200 nM | COc1ccc(F)c(N2CCC(N(C)c3ccc(N4C[C@H](OC)C[C@@H]4CC(=O)O)cn3)CC2)c1 [Example 37, 2-((2R,4R)-1-(6-((1-(2-Fluoro-5-methoxyphenyl)piperidin-4-yl)(methyl)amino)pyridin-3-yl)-4-methoxypyrrolidin-2-yl)acetic acid, HCl]
11 | 160 nM | COc1ccc(F)c(N2CCC(Oc3ccc(N4C[C@H](OC)C[C@@H]4CC(=O)O)cc3)CC2C)c1 (single isomer, unassigned) [Example 13, Isomer 2, HCl]

Further lines, the compound ahead of its results:

Row | SMILES | EC50
12 | COc1cc(N2CCC(Oc3ccc(N4CC[C@@H](C)[C@@H]4CC(=O)O)cn3)C(C)C2)c(Cl)cn1 (stereo partly drawn) [Example 105, 2-((2S,3R)-1-(6-(((3,4-trans)-1-(5-Chloro-2-methoxypyridin-4-yl)-3-methylpiperidin-4-yl)oxy)pyridin-3-yl)-3-methylpyrrolidin-2-yl)acetic acid] | 60 nM
13 | COc1cc(N2CCC(Oc3ccc(N4CC[C@@H](C)[C@@H]4CC(=O)O)cc3)C(C)C2)c(Cl)cn1 (stereo partly drawn) [Example 154, 2-((2S,3R)-1-(4-(((3,4-trans)-1-(5-Chloro-2-methoxypyridin-4-yl)-3-methylpiperidin-4-yl)oxy)phenyl)-3-methylpyrrolidin-2-yl)acetic acid, TFA] | 110 nM
14 | CCOc1ccc(F)c(N2CCC(Oc3ccc(N4C[C@H](OC)[C@@H](C)[C@@H]4CC(=O)O)cc3F)C(C)C2)c1 (stereo partly drawn) [Example 100, 2-((2S,3S,4R)-1-(4-(((3,4-trans)-1-(5-Ethoxy-2-fluorophenyl)-3-methylpiperidin-4-yl)oxy)-3-fluorophenyl)-4-methoxy-3-methylpyrrolidin-2-yl)acetic acid] | 110 nM
15 | COc1cc(N2CCC(Oc3ccc(N4C[C@H](OC)CC4CC(=O)O)c(F)c3F)C(C)C2)c(Cl)cn1 (single isomer, unassigned) [Example 141, Isomer 3] | 4700 nM
16 | COc1cc(N2CCC(Oc3ncc(N4C[C@H](OC)[C@@H](C)[C@@H]4CC(=O)O)cc3F)C(C)C2)c(Cl)cn1 (stereo partly drawn) [Example 159, 2-((2S,3S,4R)-1-(6-(((3,4-trans)-1-(5-Chloro-2-methoxypyridin-4-yl)-3-methylpiperidin-4-yl)oxy)-5-fluoropyridin-3-yl)-4-methoxy-3-methylpyrrolidin-2-yl)acetic acid] | 85 nM
17 | CCOc1ccc(F)c(N2CCC(Oc3ccc(N4C[C@H](Oc5cccc(C)c5)C[C@@H]4CC(=O)O)cc3)CC2)c1 [Example 72, 2-((2R,4R)-1-(4-(1-(5-Ethoxy-2-fluorophenyl)piperidin-4-yloxy)phenyl)-4-(m-tolyloxy)pyrrolidin-2-yl)acetic acid] | 170 nM
18 | COc1cc(N2CCC(Oc3ccc(N4C[C@H](C)C[C@@H]4CC(=O)O)cn3)C(C)C2)c(Cl)cn1 (stereo partly drawn) [Example 110, 2-((2R,4R)-1-(6-(((3,4-trans)-1-(5-Chloro-2-methoxypyridin-4-yl)-3-methylpiperidin-4-yl)oxy)pyridin-3-yl)-4-methylpyrrolidin-2-yl)acetic acid] | 220 nM
19 | COc1cc(N2CCC(Oc3ccc(N4C[C@H](C)[C@@H](C)[C@@H]4CC(=O)O)cn3)C(C)C2)c(Cl)cn1 (stereo partly drawn) [Example 106, 2-((2S,3R,4R)-1-(6-(((3,4-trans)-1-(5-Chloro-2-methoxypyridin-4-yl)-3-methylpiperidin-4-yl)oxy)pyridin-3-yl)-3,4-dimethylpyrrolidin-2-yl)acetic acid] | 170 nM
20 | COc1cc(N2CCC(Oc3ccc(N4C[C@H](OC)[C@@H](C)[C@@H]4CC(=O)O)cn3)C(C)C2)c(C2CCCC2(C)C)cn1 (single isomer, unassigned) [Example 150, Isomer 1, HCl] | 320 nM
21 | COc1cc(N2CCC(Oc3cnc(N4C[C@H](OC)[C@@H](C)[C@@H]4CC(=O)O)nc3)C(C)C2)c(Cl)cn1 (stereo partly drawn) [Example 170, 2-((2S,3S,4R)-1-(5-(((3,4-trans)-1-(5-Chloro-2-methoxypyridin-4-yl)-3-methylpiperidin-4-yl)oxy)pyrimidin-2-yl)-4-methoxy-3-methylpyrrolidin-2-yl)acetic acid] | 1700 nM
22 | CCOc1ccc(F)c(N2CCC(Oc3ccc(N4C[C@@H](OCc5ccccc5)C[C@@H]4CC(=O)O)cc3)CC2)c1 [Example 46, 2-((2R,4S)-4-(Benzyloxy)-1-(4-((1-(5-ethoxy-2-fluorophenyl)piperidin-4-yl)oxy)phenyl)pyrrolidin-2-yl)acetic acid, HCl] | 650 nM
23 | CCOc1ccc(F)c(N2CCC(Oc3ccc(N4C[C@H](c5cccc(C(F)(F)F)c5)C[C@@H]4CC(=O)O)cc3)CC2)c1 [Example 122, 2-((2R,4S)-1-(4-((1-(5-Ethoxy-2-fluorophenyl)piperidin-4-yl)oxy)phenyl)-4-(3-(trifluoromethyl)phenyl)pyrrolidin-2-yl)acetic acid, TFA] | 240 nM
24 | CCCCCO[C@H]1CN(c2ccc(OC3CCN(c4cc(OC)ncc4Cl)CC3C)cc2)[C@@H](CC(=O)O)[C@@H]1C (stereo partly drawn) [Example 162, 2-((2S,3S,4R)-1-(4-(((3,4-trans)-1-(5-Chloro-2-methoxypyridin-4-yl)-3-methylpiperidin-4-yl)oxy)phenyl)-3-methyl-4-(pentyloxy)pyrrolidin-2-yl)acetic acid, TFA] | 63 nM
25 | COc1cc(N2CCC(Oc3ccc(N4C[C@H](OC)[C@@H](C)[C@@H]4CC(=O)O)c(F)c3)CC2)c(Cl)cn1 [Example 112, 2-((2S,3S,4R)-1-(4-((1-(5-Chloro-2-methoxypyridin-4-yl)piperidin-4-yl)oxy)-2-fluorophenyl)-4-methoxy-3-methylpyrrolidin-2-yl)acetic acid] | 130 nM
26 | COc1cc(N2CCC(Oc3ncc(N4C[C@H](OC)[C@@H](C)[C@@H]4CC(=O)O)cc3C(F)(F)F)C(C)C2)c(Cl)cn1 (stereo partly drawn) [Example 165, 2-((2S,3S,4R)-1-(6-(((3,4-trans)-1-(5-Chloro-2-methoxypyridin-4-yl)-3-methylpiperidin-4-yl)oxy)-5-(trifluoromethyl)pyridin-3-yl)-4-methoxy-3-methylpyrrolidin-2-yl)acetic acid] | 47 nM
27 | CCOc1ccc(F)c(N2CCC(Oc3ccc(N4C[C@H](OC)[C@@H](C)[C@@H]4CC(=O)O)c(F)c3)C(C)C2)c1 (stereo partly drawn) [Example 113, 2-((2S,3S,4R)-1-(4-(((3,4-trans)-1-(5-Ethoxy-2-fluorophenyl)-3-methylpiperidin-4-yl)oxy)-2-fluorophenyl)-4-methoxy-3-methylpyrrolidin-2-yl)acetic acid] | 290 nM
28 | COc1cc(N2CCC(Oc3ccc(N4C[C@H](OC)C[C@@H]4CC(=O)O)cc3)C(Cn3cnnn3)C2)c(Cl)cn1 (stereo partly drawn) [Example 94, 2-((2R,4R)-1-(4-(((3,4-trans)-3-((1H-Tetrazol-1-yl)methyl)-1-(5-chloro-2-methoxypyridin-4-yl)piperidin-4-yl)oxy)phenyl)-4-methoxypyrrolidin-2-yl)acetic acid, TFA] | 3400 nM
